Assay results as given in patent US4598081A, “1,3-dioxo-1H-benz(de)isoquinoline-2(3H) butyric acid, pharmacologically acceptable salts thereof and compositions containing the same for treatment of diabetes mellitus complications” (Nauchno-Issledovatelsky Institut Endokrinologii I Obmena …, priority 1985, dated 1986).
“Also recorded” adds a separate entry of the source. Where a name gives a salt, the structure may show the parent alone.

Key:
[1] = test system: basal membrane of the muscle capillaries; assay: thickness of capillary basal membrane of limb muscles (electron microscope) in rats with alloxan diabetes; assay type: in vivo, Wistar rats; details: for average thickness of the capillary basal membrane of the limb muscles, after administration (M): rats, alloxan diabetes, end of the experiment; for biological activity compared with 1,3-dioxo-1H-benz(de)isoquinoline-2(3H)acetic acid: comparison with prior art compound; for thickness of the basal membrane of the muscle capillaries: after treatment
aldose reductase = assay: activity of aldose reductase in tissues of animals with alloxan diabetes; assay type: in vivo, Wistar rats; details: for inhibition of aldose reductase: tissues of the experimental animals; for Activity of aldose reductase: alloxan diabetes + compound
Protocol: (§1) The experiments were conducted on Wistar rats (males) having a weight of 140 to 160 g. The diabetes was caused by a single-time hypodermic injection of alloxan ("Chemapol") in a dose of 150 mg per kg of body weight.
(§2) The glood glucose was determined by applying a glucoseoxidase method, cholesterine by […], aldose reductase by the method of Hayman and Kinoshita, sorbitol by a sorbitol-dehydrogenase method.

[2] = test system: rats having alloxan diabetes; assay: histological examination and biomicroscopy in rats with prolonged alloxan diabetes; assay type: in vivo, Wistar rats; details: for biochemical and morphological indices: experimental animals
Protocol: The diabetes was caused by a single-time hypodermic injection of alloxan ("Chemapol") in a dose of 150 mg per kg of body weight.
Biomicroscopy of the conjunctiva was effected with the aid of a microscope fitted with a camera and a flash lamp.
For histological examination pieces of the kidney, liver and miocardium were fixed in 10% neutral formaline dehydrated in alcohol, and the paraffin sections were stained with hematoxylin and eosin, and also by the Van-Gizon method.

[3] = solubility of the acid and its salts; assay type: physicochemical
Rats [4] = details: rat, in vivo
Protocol: (§3) The experiments were performed on rats, rabbits, and dogs.
(§4) In addition, the action of the proposed drug on the carbohydrate and uropoiesis functions of the liver was also examined.
(§5) The above indices were examined at the beginning of the experiment and then after 1, 2, 3, 4, 5, and 6 months.
(§6) At the end of the experiments there were carried out pathomorphological examinations of the lungs, heart, liver, kidneys, adrenal glands, spleen, lymph nodes, intestine, stomach, pancreas, and thyroid glands.
(§7) On completion of the experiment (six months) the experimental animals were killed: the dogs were killed with thiopental, the rabbits with aeroembolism, and the rats with diethyl ether. Thereafter, the lungs, heart, liver, kidneys, adrenal glands, spleen, lymph nodes, intestine, pancreas and thyroid gland of the killed animals were examined. The material thus obtained was fixed in formole. There were prepared paraffin sections which were then stained with hematoxylin and eosin.

rats, rabbits, and dogs = details: in vivo
Protocol: as §3, §4, §5, §6, §7

Dogs [5] = assay: chronic toxicity, 6 months peroral, dogs; details: in the dogs only
Protocol: as §3, §4, §5, §6, §7

[6] = test system: white mice, rats, and dogs; assay: acute ("high") toxicity, symptoms and overall assessment in mice, rats and dogs
Protocol: (§8) Mature animals both male and female, weighting 18 to 22 g (white mice), 180 to 220 g (rats), 11 to 15 kg (dogs) were used for said experiments.
(§9) The drug was introduced in the form of a starch suspension through a gastric tube.
(§10) Each dose being examined was tested on 5-6 animals.
(§11) LD50 determined by the Lichfield and Wilcoxon method, or the Van der Waerden method was used as an index of high toxicity. The animals were kept under observation for 5 days.

[7] = test system: sorbitol and fructose in tissues; assay: sorbitol and fructose in tissues of animals with alloxan diabetes; assay type: in vivo, Wistar rats; details: for Fructose / Sorbitol: alloxan diabetes
Protocol: as §1, §2

Dogs [8] = assay: acute ("high") toxicity, peroral, dogs; details: dosage 5500
Protocol: as §8, §9, §10, §11

White mice = assay: acute ("high") toxicity, peroral, white mice
Protocol: as §8, §9, §10, §11

Rats [9] = assay: acute ("high") toxicity, peroral, rats
Protocol: as §8, §9, §10, §11

[10] = blood indices (fructose, cholesterin, glucose) in rats with alloxan diabetes; assay type: in vivo, Wistar rats
Protocol: as §1, §2

O=C(O)CN1C(=O)c2cccc3cccc(c23)C1=O [1,3-dioxo-1H-benz(de)isoquinoline-2(3H)acetic acid, reference compound]
average thickness of the capillary basal membrane of the limb muscles, after administration (M) [1]: 112 nanometers

O=C(O)CCCN1C(=O)c2cccc3cccc(c23)C1=O [Sodium salt, sodium salt of 1,3-dioxo-1H-benz(de)isoquinoline-2(3H)butyric acid]
biological activity compared with 1,3-dioxo-1H-benz(de)isoquinoline-2(3H)acetic acid [1]: biologically more active than the prior art compound
average thickness of the capillary basal membrane of the limb muscles, after administration (M) [1]: 102 nanometers
inhibition of aldose reductase (aldose reductase): inhibiting properties with respect to aldose reductase; also recorded: inhibitors of aldose reductase
biochemical and morphological indices [2]: considerable improvements
solubility in benzole [3]: insoluble
solubility in ethyl alcohol [3]: slightly soluble
solubility in water [3]: readily soluble

O=C(O)CCCN1C(=O)c2cccc3cccc(c23)C1=O [1,3-dioxo-1H-benz(de)isoquinoline-2(3H)butyric acid]
change in blood-formation function, composition of the peripheric blood and urogenous function of the liver (Rats [4]): did not lead to a change
changes in the anthropological data (rats, rabbits, and dogs): no changes in the anthropological data
irritating action on the liver and kidneys (rats, rabbits, and dogs): slight non-specific irritating action on the liver and kidneys
lesions in the liver and kidneys (rats, rabbits, and dogs): slight lesions in the liver and kidneys
lesions on dissection (rats, rabbits, and dogs): no lesions
local lesion in the liver and kidneys (rats, rabbits, and dogs): slight local lesion in the liver and kidneys
morphological lesions in organs (rats, rabbits, and dogs): did not cause morphological lesions in many organs
vessel permeability in the renal glomerulus (Dogs [5]): elevated vessel permeability in the renal glomerulus
time until animals laid down on the side, comatose ([6]; acute lethal poisoning): 6 to 8 h
time within which the animals died ([6]; as a rule, during the first 24-26 hours): 24 to 26 h
overall acute toxicity assessment ([6]; peroral): substance with low-toxicity
decrease of thickness of the basal membrane of the muscle capillaries ([1]; 50 mg per kg per day, 30 days): almost one and a half times
microangiopathy ([1]; 50 mg per kg per day, 30 days): Microangiopathy became less pronounced
biological activity compared with 1,3-dioxo-1H-benz(de)isoquinoline-2(3H)acetic acid [1]: biologically more active than the prior art compound
thickness of the basal membrane of the muscle capillaries ([1]; rats having alloxan diabetes for 12 months): 100-120 nm
thickness of the basal membrane of the muscle capillaries ([1]; rats having six months alloxan diabetes): 65 nm
average thickness of the capillary basal membrane of the limb muscles, after administration (M) [1]: 98.3 nanometers
Activity of aldose reductase (aldose reductase; Aorta): 7.4 ± 0.8 μmol substruct. per mg of protein
Activity of aldose reductase (aldose reductase; Cryst. lens): 3.4 ± 0.30 μmol substruct. per mg of protein
Activity of aldose reductase (aldose reductase; Nerve): 25.5 ± 2.1 μmol substruct. per mg of protein
inhibition of aldose reductase (aldose reductase): inhibiting properties with respect to aldose reductase; also recorded: inhibitors of aldose reductase
Fructose ([7]; Cryst. lens): 2.85 ± 0.56 μmol per g of tissue
Sorbitol ([7]; Cryst. lens): 7.18 ± 0.65 μmol per g of tissue
Fructose ([7]; Nerve): 3.25 ± 0.73 μmol per g of tissue
Sorbitol ([7]; Nerve): 9.8 ± 0.94 μmol per g of tissue
quantity of sorbitol and fructose in the examined tissues ([7]; Table 5): has decreased
Percentage of animal death (died/in group) (Dogs [8]): 3/5
kidney histology ([2]; 50 mg per kg per day, 30 days): renal glomerulus became more plethoric, the epithelium of the tubules had a more clearly defined boundary, and the protoplasm became less vacuolized and granular
liver histology ([2]; 50 mg per kg per day, 30 days): structure of the lobes and radial location of trabeculas in the liver became clearly defined
myocardium histology ([2]; 50 mg per kg per day, 30 days): Dystrophic lesion in the myocardium was less pronounced
vascular pattern of the iris ([2]; 50 mg per kg per day, 30 days): Inflation and convolution of the vessels decreased, and the blood flow became homogeneous
biochemical and morphological indices [2]: considerable improvements
Percentage of animal death (died/in group) (White mice; dosage 3750): 3/5
Percentage of animal death (died/in group) (White mice; dosage 4000): 2/5
Percentage of animal death (died/in group) (White mice; dosage 4500): 4/5
Percentage of animal death (died/in group) (White mice; dosage 4750): 5/5
Percentage of animal death (died/in group) (White mice; dosage 5000): 3/5
Percentage of animal death (died/in group) (White mice; dosage 5250): 5/5
Percentage of animal death (died/in group) (Rats [9]; dosage 3000): 0/5
Percentage of animal death (died/in group) (Rats [9]; dosage 3500): 2/5
Percentage of animal death (died/in group) (Rats [9]; dosage 4000): 1/4
Percentage of animal death (died/in group) (Rats [9]; dosage 4500): 3/5
Percentage of animal death (died/in group) (Rats [9]; dosage 5000): 4/7
Percentage of animal death (died/in group) (Rats [9]; dosage 5500): 4/5
Percentage of animal death (died/in group) (Rats [9]; dosage 6000): 5/5
solubility in alcohol ([3]; alcohol, when heated): soluble
solubility in dimethyl-formamide ([3]; dimethyl-formamide, when heated): soluble
solubility in soda and alkali solutions ([3]; soda and alkali solutions): soluble in soda and alkali solutions
solubility in water [3]: water-insoluble
change of the level of glucose (blood) [10]: did not change
cholesterin (blood) ([10]; p<0.005): 100±7.1 mg %
fructose (blood) ([10]; p<0.02): 2.26±0.16 mg %
level of glucose (blood) ([10]; p<0.5): 340.1±27.8 mg %

O=C(O)CCCN1C(=O)c2cccc3cccc(c23)C1=O [Potassium salt, potassium salt of 1,3-dioxo-1H-benz(de)isoquinoline-2(3H)butyric acid]
biological activity compared with 1,3-dioxo-1H-benz(de)isoquinoline-2(3H)acetic acid [1]: biologically more active than the prior art compound
average thickness of the capillary basal membrane of the limb muscles, after administration (M) [1]: 98.6 nanometers
inhibition of aldose reductase (aldose reductase): inhibiting properties with respect to aldose reductase; also recorded: inhibitors of aldose reductase
biochemical and morphological indices [2]: considerable improvements
solubility in benzole [3]: insoluble
solubility in ethyl alcohol [3]: soluble
solubility in water [3]: readily soluble
